Reference: publication PMC9694965, “Design of 4-Substituted Sulfonamidobenzoic Acid Derivatives Targeting Coxsackievirus B3” (Life, 2022)

Columns and labels:
CVB3 Nancy [1] = test: Cytoprotection assay (MTT) in Vero cells infected with CVB3 Nancy; format: cell-based, Coxsackievirus B3
Experimental: (§1) Vero cells were seeded in 96-well plates in 24 h before the assay. On the assay day, the cells were washed with saline and tested compounds in appropriate concentrations (300–3 μg/mL) in MEM without FBS were added to cells. No compounds were added to virus control wells. The plates were incubated for 1 h at 37 °C at 5% CO2. The cells were then infected with CVB3 Nancy (m.o.i range of 1–0.001) and incubated for 72 h at 37 °C at 5% CO2. No virus was added to the cytotoxicity control wells. Cell viability was then assessed using an MTT test with the following procedure. The cells were washed with saline, and a solution of 3-(4,5-dimethylthiazolyl-2) 2,5-diphenyltetrazolium bromide (ICN Biochemicals Inc., Aurora, OH, USA) ([…]) in MEM was added to the wells (100 µL per well). After 2 h of incubation at 37 °C in 5% CO2, the supernatant from wells was discarded, and the formazan residue was dissolved in DMSO (100 µL per well). The optical density of cells was then measured on a Multiskan multifunctional reader (Thermo Fisher Scientific, Shanghai, China) at a wavelength of 540 nm.
The cytoprotective activity of compounds was considered to be their ability to increase the values of OD compared to control wells (using only a virus, without drugs). Based on the results obtained, the values of IC50, i.e., the concentration of compounds that result in 50% cells protection were calculated for m.o.i. 0.001 using GraphPad Prism 6.01 software.

[2] = Cytotoxicity assay (MTT) in Vero cells; format: cell-based; conditions: African green monkey
Experimental: as §1
(§2) The microtetrazolium test (MTT) was used to study the cytotoxicity of the compounds. The permissive cell line Vero was seeded in 96-well plates in Eagles minimal essential medium (MEM) supplemented with 10% FBS. After 24 h, the media were removed, and the wells were washed with saline. Compounds were dissolved in DMSO, and a series of two-fold dilutions of each compound in MEM without FBS were prepared and added to the cells in triplicates. […] The MTT was then performed as described above. Next, the optical density of cells was measured on a Multiskan multifunctional reader (Thermo Fisher Scientific, Shanghai, China) at a wavelength of 540 nm and plotted against the concentration of the compounds to generate the dose–response curve. The 50% cytotoxic dose (CC50) of each compound (i.e., the compound concentration that causes the death of 50% of cells in a culture, or decreases the optical density twice, as compared to the control wells) was calculated using a four-parameter logistic nonlinear regression model (GraphPad Prism 6.01).

Vero cells = test: Cytotoxicity assay (MTT) in Vero cells; format: cell-based; conditions: incubation with the compound only
Experimental: as §1, §2

[3] = system: Coxsackievirus B3 (Nancy); test: Viral yield reduction assay in Vero cells; format: cell-based
Experimental: Coxsackievirus B3 (CVB3, strain Nancy) was obtained from the collection of viruses of the Pasteur Institute (St. Petersburg, Russia). The permissive cell line Vero (ATCC #CCL-81) was used in the study. Infectious titers (in a 50%-tissue culture infection dose, TCID50) were determined in Vero cells for CVB3 by endpoint dilution assay using the following procedure. Permissive cells were seeded into 96-wells plates in Eagles minimal essential medium (MEM) supplemented with 5% fetal bovine serum (FBS). After 24 h, the medium was aspirated, the wells were washed with saline, fresh MEM without FBS was added to the wells and the cells were infected with serial tenfold dilutions of virus stocks (100 µL per well, 4 wells for each dilution). The plates were incubated at +37 °C in 5% CO2 and observed daily for cytopathic effect (CPE). After 72 h the viral titer was calculated in TCID50 using the method of Spearmen-Carber.
The antiviral activity of the compounds was evaluated using viral yield reduction assay. The respective permissive cell line Vero was seeded in MEM supplemented with 5% FBS in 24-well plates. When the cell confluence reached 100%, the compounds tested were dissolved in DMSO, and a series of three-fold dilutions of each compound in MEM without FBS was added to the cells, and incubated at 37 °C in 5% CO2. After 1 h, the media were discarded; equal volumes of fresh serial dilutions of each compound and viral suspension in MEM without FBS at […] were added. In control wells, only MEM without FBS was added. No compounds were added in the virus control wells. The plates were incubated at 4 °C for 1 h. The unbound virus was then washed away and, again, three-fold dilutions of each compound (the final concentration 50–0.6 µg/mL) in MEM without FBS were added to the wells. After 24 h of incubation at 37 °C in 5% CO2, the infectious titer of viral progeny (in TCID50) for each compound concentration, cell control, and virus control wells were determined in permissive cell lines by endpoint dilution assay as described above.
The titer of virus progeny was plotted against log concentration of the compounds tested to generate the dose–response curve. The 50% inhibition concentration (IC50) of each compound tested (i.e., the compound concentration that decreases the infectious viral progeny titer twice, as compared to the control wells) was calculated using a four-parameter logistic nonlinear regression model (GraphPad Prism 6.01).

CVB3 Nancy [4] = test: Thermostability assay (capsid binding, heat inactivation of virus); parameters: species or system Coxsackievirus B3; conditions: pre-incubation 30 min at 37 °C, thermal gradient 37-55 °C for 2 min
Experimental: CVB3 Nancy was pre-incubated with the compounds tested or an equal volume of MEM (virus control) for 30 min at +37 °C in sterile thin-walled 200 μL PCR-tubes (7 tubes per each treatment condition) in BioRad CFX PCR-machine. The thermal gradient of 37–55 °C for 2 min was then applied, followed by rapid cooling to 4 °C. Subsequently, the infectious virus load at each thermal condition for each compound tested was quantified by end-point dilution assay.

## O=C(O)c1ccc(NS(=O)(=O)c2ccc(NC(=O)c3ccccc3C(=O)O)cc2)cc1 [Compound 4, 2-((4-(N-(4-Carboxyphenyl)sulfamoyl)phenyl)carbamoyl)benzoic acid]
CVB3 Nancy [1]; Enterovirus B, Vero cells infected with CVB3 Nancy at m.o.i. 0.001, 72 h, MTT, read-out: EC50 (50% cytoprotective concentration)
  EC50: 13.2 ± 1.49 µM
CVB3 Nancy [1]; cytoprotection assay, CC50 72 h / EC50
  SI (selectivity index, ratio CC50/IC50): >17.2
[2]; 24 h incubation with the compound only
  CC50 at 24 h: > 1140 µM
[2]; 72 h incubation with the compound only
  CC50 at 72 h: > 227 µM
Vero cells
  CC50: exceeded the maximum concentration used in the assay
[3]; Enterovirus B, B3 / CVB3, viral yield reduction, Vero cells, CVB3 Nancy at m.o.i. 0.01, 24 h, read-out: IC50 (50% virus-inhibiting concentration)
  IC50: 4.29 ± 1.79 µM
[3]; viral yield reduction assay, CC50 24 h / IC50
  SI (selectivity index, ratio CC50/IC50): >264
CVB3 Nancy [4]; concentrations greatly exceeding IC50
  Temperature to which infectivity of CVB3 was preserved: 52.4 °C
CVB3 Nancy [4]; versus virus control
  Effect on heat inactivation of CVB3 (capsid stabilization): heat inactivation of CVB3 changed to higher temperatures
other
  melting point: 203 to 205 °C
